# Measured values reported in ChEMBL document CHEMBL6096728, “Simultaneous Induction of Immunogenic Pyroptosis and PD-L1 Downregulation by One Single Photosensitizer for Synergistic Cancer Photoimmunotherapy” (J Med Chem, 2025).
# Activity calls are given as the source filed them. The calls are words filed in the database; no cut-off is given here.
# Assays:
# [1] = Phototoxicity against human MDA-MB-231 cells preincubated for 24 hrs followed by light irradiation of 20 mW.cm/2 at 400 to 700nm for 10 mins under hypoxia condition by CCK-8 method; format: functional, cell-based; conditions: MDA-MB-231, light or radiation study
# [2] = Phototoxicity against mouse 4T1 cells preincubated for 24 hrs followed by light irradiation of 20 mW.cm/2 at 400 to 700nm for 10 mins under hypoxia condition by CCK-8 method; format: functional, cell-based; conditions: 4T1, light or radiation study
# MDA-MB-231 [3] = assay: Induction of cell death in human MDA-MB-231 cells assessed as increase in red fluorescence at 0.5 uM incubated for 24 hrs followed by light irradiation of 20 mW.cm/2 at 400 to 700nm for 10 mins by Calcein-AM/PI staining based analysis; format: functional
# MDA-MB-231 [4] = assay: Induction of cell death in human MDA-MB-231 cells assessed as decrease in green fluorescence at 0.5 uM incubated for 24 hrs followed by light irradiation of 20 mW.cm/2 at 400 to 700nm for 10 mins by Calcein-AM/PI staining based analysis; format: functional
# 4T1 [5] = assay: Induction of cell death in mouse 4T1 cells assessed as increase in red fluorescence at 0.5 uM incubated for 24 hrs followed by light irradiation of 20 mW.cm/2 at 400 to 700nm for 10 mins by Calcein-AM/PI staining based analysis; format: functional
# 4T1 [6] = assay: Induction of cell death in mouse 4T1 cells assessed as decrease in green fluorescence at 0.5 uM incubated for 24 hrs followed by light irradiation of 20 mW.cm/2 at 400 to 700nm for 10 mins by Calcein-AM/PI staining based analysis; format: functional
compound,measurement,setting,value
CCN(CC)c1ccc2nc3c4ccccc4c(=O)cc-3oc2c1 [NILE RED],IC50,[1],> 10 µM
same,IC50,[2],> 10 µM
same,Activity,MDA-MB-231 [3],inactive
same,Activity,MDA-MB-231 [4],inactive
same,Activity,4T1 [5],inactive
same,Activity,4T1 [6],inactive
